From patent US20170189409A1, “MEDICAL USE” (Almirall, S.A., priority 2014, published 2017)
pIC50: −log10 of the molar value.

Columns and labels:
PI3K p110α = PI3K p110α (Homo sapiens, UniProt P42336); settings: compound pre-incubation time of 30 min
[1] = tested on: anti-Dsg3 and anti-dsDNA autoantibody production; assay: MRL/lpr mouse spontaneous autoimmune disease model, autoantibody production; assay type: in vivo
Procedure: The primary endpoint of this study was assessment of autoantibody production, including pemphigus-specific anti-Dsg3 antibodies.
The prednisolone dose was selected based on previous reports and corresponds to a high CS dose in humans.
As autoantibodies develop progressively and may follow a different course in each animal, anti-dsDNA antibody levels were measured on week 12 and used to uniformly distribute animals to dosing groups. At week 13, daily treatments were initiated and continued for 6 weeks. Antibodies to dsDNA and Dsg3 were measured at weeks 12, 15, 17 and 19. Skin lesions were inspected visually throughout the study. Effects on other parameters such as proteinuria, as well as general hematological, serological, and histological signs were evaluated at study completion.

PI3K p110β = PI3K p110β (Homo sapiens, UniProt P42338); settings: compound pre-incubation time of 30 min
[2] = tested on: anti-Dsg3 antibody-induced skin damage; assay: Neonatal passive transfer model; settings: for mice with blisters: 8 mice treated
[3] = tested on: anti-KLH antibody response; assay: Secondary TDAR assay to KLH in mice; assay type: in vivo
Procedure: This assay included two immunizations with KLH separated 15 days apart (50 μg KLH/animal, intraperitoneally) and specific IgG anti-KLH levels were measured on day +11 after the second immunization. Administration of test compound (0.3 and 3 mg/kg) started on the day of second immunization (day +1) and then once daily for the next 9 days.

[4] = tested on: anti-KLH antibody response; assay: Primary T-dependent antibody response (TDAR) to KLH in mice; assay type: in vivo
Procedure: This assay allows a global assessment of the effect of a drug candidate on antigen presentation, helper T lymphocyte function and B lymphocyte dependent antibody production.
In both cases, the administration of the test compound started on the day of sensitization (day +1, KLH 2 mg/mouse, intravenously). […] A possible reason for this discrepancy is that the lymphocyte count of the concurrent vehicle group of the latter study was abnormally lower than usual, which could mask a potential effect of the test compound on this parameter.

[5] = tested on: autoantibody-mediated cutaneous lesions; assay: Immunization-induced mouse model of epidermolysis bullosa acquista (EBA); assay type: in vivo, B6.SJL-H2s mice; settings: for body weight gain: 6 week treatment, LAS191954 3 mg/kg/day, methylprednisolone 20 mg/kg/day
Procedure: Induction of experimental EBA was performed as described in […] et al., J Immunol. 2013; 191:2978-2988. Briefly, 6-10 week B6.SJL-[…] mice were immunized with an emulsion of a recombinant protein encompassing the vWFA2 binding domain of mouse type VII collagen (COL7) in adjuvant (Titermax). After immunization, mice were weekly evaluated for the presence and extend of clinical disease, measured as percentage of body surface affected by skin lesions (erythema, blisters, erosions and crusts). […] Treatments were carried out over a 6-week period, and mice were evaluated for the extend of clinical disease (primary endpoint) weekly. […] For better comparability between experiments, the affected body surface area at weeks 1-6 was related to that at inclusion (set at 1). Body weight was monitored weekly during treatment.

[6] = week 19 versus week 12 (FIG. 3)

PI3K p110α, sequence (P42336 whole entry): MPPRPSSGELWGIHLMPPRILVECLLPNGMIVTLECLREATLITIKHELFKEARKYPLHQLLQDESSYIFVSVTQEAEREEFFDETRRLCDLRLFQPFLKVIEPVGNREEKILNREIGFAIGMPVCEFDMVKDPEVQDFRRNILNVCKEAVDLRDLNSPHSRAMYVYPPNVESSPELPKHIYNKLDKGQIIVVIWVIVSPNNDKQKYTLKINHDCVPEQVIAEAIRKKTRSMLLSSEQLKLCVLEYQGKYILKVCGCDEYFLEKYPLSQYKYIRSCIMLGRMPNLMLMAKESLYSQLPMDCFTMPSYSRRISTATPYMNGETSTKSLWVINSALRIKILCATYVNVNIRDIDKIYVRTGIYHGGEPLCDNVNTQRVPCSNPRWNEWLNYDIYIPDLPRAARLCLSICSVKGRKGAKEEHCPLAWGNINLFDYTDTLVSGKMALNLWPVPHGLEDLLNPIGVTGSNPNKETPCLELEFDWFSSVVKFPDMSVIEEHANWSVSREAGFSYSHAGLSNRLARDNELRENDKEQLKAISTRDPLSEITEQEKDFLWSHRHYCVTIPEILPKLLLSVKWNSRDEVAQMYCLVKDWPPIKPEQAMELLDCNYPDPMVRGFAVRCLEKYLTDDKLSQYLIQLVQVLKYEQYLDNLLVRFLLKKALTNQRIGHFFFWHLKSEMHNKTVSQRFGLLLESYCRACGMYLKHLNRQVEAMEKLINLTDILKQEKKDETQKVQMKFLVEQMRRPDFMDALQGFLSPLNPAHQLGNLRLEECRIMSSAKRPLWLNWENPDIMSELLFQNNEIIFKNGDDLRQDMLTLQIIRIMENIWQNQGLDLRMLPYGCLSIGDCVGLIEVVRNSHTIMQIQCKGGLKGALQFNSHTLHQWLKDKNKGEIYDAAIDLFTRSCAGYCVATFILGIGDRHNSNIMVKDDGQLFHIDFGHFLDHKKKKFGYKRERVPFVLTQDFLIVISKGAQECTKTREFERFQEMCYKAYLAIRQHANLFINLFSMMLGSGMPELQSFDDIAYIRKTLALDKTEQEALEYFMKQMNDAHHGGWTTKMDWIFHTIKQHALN
PI3K p110α, sequence (P27986 whole entry partner): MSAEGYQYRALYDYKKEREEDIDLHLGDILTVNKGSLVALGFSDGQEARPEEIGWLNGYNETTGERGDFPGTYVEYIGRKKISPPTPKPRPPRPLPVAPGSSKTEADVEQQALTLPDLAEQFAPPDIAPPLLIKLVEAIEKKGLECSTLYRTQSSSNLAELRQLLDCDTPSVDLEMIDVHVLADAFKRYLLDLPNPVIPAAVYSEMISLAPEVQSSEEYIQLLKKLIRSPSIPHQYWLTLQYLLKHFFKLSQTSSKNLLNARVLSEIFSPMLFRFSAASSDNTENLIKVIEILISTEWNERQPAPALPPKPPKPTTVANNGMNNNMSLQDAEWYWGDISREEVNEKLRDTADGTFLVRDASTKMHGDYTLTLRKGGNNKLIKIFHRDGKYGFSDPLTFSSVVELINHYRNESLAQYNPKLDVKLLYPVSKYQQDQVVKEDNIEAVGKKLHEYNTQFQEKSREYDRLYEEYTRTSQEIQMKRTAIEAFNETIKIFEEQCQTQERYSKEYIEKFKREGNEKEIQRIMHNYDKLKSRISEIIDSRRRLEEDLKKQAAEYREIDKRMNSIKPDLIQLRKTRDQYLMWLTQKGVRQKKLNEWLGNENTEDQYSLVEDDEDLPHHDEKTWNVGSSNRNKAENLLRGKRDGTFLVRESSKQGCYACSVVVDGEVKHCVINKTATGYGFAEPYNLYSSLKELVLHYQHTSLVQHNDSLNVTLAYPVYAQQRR
PI3K p110β, sequence (P42338 whole entry): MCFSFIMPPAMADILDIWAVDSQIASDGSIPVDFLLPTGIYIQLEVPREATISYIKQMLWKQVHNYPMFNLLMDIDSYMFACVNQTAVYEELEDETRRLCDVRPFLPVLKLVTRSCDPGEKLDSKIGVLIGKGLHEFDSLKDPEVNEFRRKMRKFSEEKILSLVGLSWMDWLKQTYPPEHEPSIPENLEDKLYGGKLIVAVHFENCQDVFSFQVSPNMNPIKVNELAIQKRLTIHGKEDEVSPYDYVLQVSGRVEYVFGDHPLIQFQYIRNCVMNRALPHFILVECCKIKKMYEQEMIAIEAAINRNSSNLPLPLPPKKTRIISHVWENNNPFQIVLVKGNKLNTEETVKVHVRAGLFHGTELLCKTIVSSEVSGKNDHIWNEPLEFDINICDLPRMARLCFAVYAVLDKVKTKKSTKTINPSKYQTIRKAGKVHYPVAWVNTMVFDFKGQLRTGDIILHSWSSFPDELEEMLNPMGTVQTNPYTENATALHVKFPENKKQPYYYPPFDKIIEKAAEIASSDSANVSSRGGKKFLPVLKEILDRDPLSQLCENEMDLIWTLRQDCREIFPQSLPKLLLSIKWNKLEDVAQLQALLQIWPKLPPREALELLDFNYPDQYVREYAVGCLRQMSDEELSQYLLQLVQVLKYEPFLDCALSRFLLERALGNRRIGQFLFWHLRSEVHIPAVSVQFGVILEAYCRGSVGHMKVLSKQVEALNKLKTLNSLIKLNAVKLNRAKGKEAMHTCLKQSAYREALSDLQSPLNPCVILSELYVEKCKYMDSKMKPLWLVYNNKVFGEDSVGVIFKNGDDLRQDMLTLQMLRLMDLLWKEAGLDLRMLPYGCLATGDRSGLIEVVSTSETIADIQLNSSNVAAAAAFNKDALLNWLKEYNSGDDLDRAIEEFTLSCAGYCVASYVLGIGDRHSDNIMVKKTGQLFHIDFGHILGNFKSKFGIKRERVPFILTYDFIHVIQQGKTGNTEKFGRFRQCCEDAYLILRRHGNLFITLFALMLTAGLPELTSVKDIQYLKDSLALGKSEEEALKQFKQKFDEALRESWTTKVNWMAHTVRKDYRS
PI3K p110β, sequence (P27986 whole entry partner): as the sequence (P27986 whole entry partner) above

Compound	pIC50 (PI3K p110α)	ID50, anti-Dsg3 and anti-dsDNA autoantibody production ([1]; Mrl/Lpr model, repeated administration) [mg/kg]	reduction of anti-dsDNA antibody titers [1, 6] [%]	pIC50 (PI3K p110β)	% with blisters ([2]; PV IgG + LAS191954 1 mg/kg) [%]	mice with blisters ([2]; PV IgG + LAS191954 1 mg/kg)	% with blisters ([2]; PV IgG + LAS191954 10 mg/kg) [%]	mice with blisters ([2]; PV IgG + LAS191954 10 mg/kg)	effect on anti-Dsg3 antibody-induced skin damage ([2]; mouse, in vivo)	ID50, secondary IgG antibody responses to KLH ([3]; day +11 after second immunization, 0.3 and 3 mg/kg once daily) [mg/kg]	lymphocyte counts ([3]; secondary TDAR, 0.3 and 3 mg/kg)	ID50, primary IgM antibody responses to KLH ([4]; day +5 PI, 4 days of daily treatment, 0.03-10 mg/kg) [mg/kg]	ID50, primary IgG antibody responses to KLH ([4]; day +15 PI, 14-day dosing, 0.03-1 mg/kg) [mg/kg]	lymphocyte count ([4]; primary IgG study)	general health status of the animals ([4]; primary IgM and IgG studies)	WBC counts ([4]; primary IgM study, mainly reduced peripheral blood lymphocytes)	body weight gain [5]	overall disease activity, AUC of clinical score ([5]; LAS191954 orally 3 mg/kg/day, 6 weeks, versus vehicle)	change of anti-dsDNA antibody levels at the end of treatment [1, 6]
C[C@H](Nc1ncnc(N)c1C#N)c1nn2ccc(C#N)c2c(=O)n1-c1ccccc1 [LAS191954, (S)-2-(1-(6-amino-5-cyanopyrimidin-4-ylamino)ethyl)-4-oxo-3-phenyl-3,4-dihydropyrrolo[1,2-f][1,2,4]triazine-5-carbonitrile]	5.09	<3	10	7.03	75	6	100	8	no direct effect	<0.3	reduced lymphocyte counts	0.12	0.17	no apparent effect	without apparent effects	lower WBC counts	not altered	significant reduction in the accumulative clinical score	–
C[C@H]1C[C@@H]2[C@H]([C@@H](O)C[C@@]3(C)[C@H]2CC[C@]3(O)C(=O)CO)[C@@]2(C)C=CC(=O)C=C12 [Methylprednisolone, reference compound]	–	–	–	–	–	–	–	–	–	–	–	–	–	–	–	–	diminished the body weight gain	–	–
C[C@]12C=CC(=O)C=C1CC[C@@H]1[C@@H]2[C@@H](O)C[C@@]2(C)[C@H]1CC[C@]2(O)C(=O)CO [Prednisolone, prednisolone, reference compound]	–	–	–	–	–	–	–	–	–	–	–	–	–	–	–	–	–	–	doubled
